SMILES strings stand for the structures.

The first experiment deals with T1, histone deacetylase, subtype 1 (HDAC1) (Homo sapiens, UniProt Q13547).
T1 construct: Flag; made in house
T1 sequence (Q13547 whole entry): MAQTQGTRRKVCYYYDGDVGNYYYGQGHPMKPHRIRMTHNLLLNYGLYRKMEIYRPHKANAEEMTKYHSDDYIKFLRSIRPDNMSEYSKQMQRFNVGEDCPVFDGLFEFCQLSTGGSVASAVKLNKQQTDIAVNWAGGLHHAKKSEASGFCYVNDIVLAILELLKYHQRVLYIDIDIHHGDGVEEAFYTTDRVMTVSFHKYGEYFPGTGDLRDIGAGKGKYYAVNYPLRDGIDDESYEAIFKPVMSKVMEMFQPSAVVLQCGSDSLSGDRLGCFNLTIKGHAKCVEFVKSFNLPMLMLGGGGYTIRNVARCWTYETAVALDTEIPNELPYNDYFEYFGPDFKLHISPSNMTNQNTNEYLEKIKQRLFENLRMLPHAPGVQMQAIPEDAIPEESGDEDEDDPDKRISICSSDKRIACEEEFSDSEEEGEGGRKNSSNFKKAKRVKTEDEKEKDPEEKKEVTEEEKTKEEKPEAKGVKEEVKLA
In words: HDAC1-Flag assay (in vitro deacetylation assay). It counts as biochemical. The settings on record: Table 1, benzothiophene backbone; concentration for 50% inhibition of deacetylation; substrate at Km; unit inferred, text gives nm; read-out: HDAC Inhibition. As for the experimental part: Novel compounds were tested for their ability to inhibit histone deacetylase, subtype 1 (HDAC1) using an in vitro deacetylation assay. The enzyme source for this assay was an epitope-tagged human HDAC1 complex immuno-purified from stably expressing mammalian cells. The substrate consisted of a commercial product containing an acetylated lysine side chain (BIOMOL Research Laboratories, Inc., Plymouth Meeting, Pa.). Upon deacetylation of the substrate by incubation with the purified HDAC1 complex, a fluorophore is produced that is directly proportional to the level of deacetylation.
As to `O=C(NO)c1cc2ccc(NC(=O)C3(c4ccccc4)CC3)cc2s1` [Compound 126], the IC50 worked out at 125 ± 5.6 nM.

`CCC(C(=O)Nc1ccc2sc(C(=O)NO)cc2c1)c1ccccc1` (stereo not drawn) [Compound 86]: the IC50 is 92.5 ± 23.3 nM.

On to `O=C(NO)c1cc2cc(CNCCCc3ccccc3)ccc2s1` [Compound 154], for which the IC50 stood at 163 ± 37.4 nM. On the same count and under the same terms, the result for `O=C(NO)c1cc2cc(CNCc3ccccn3)ccc2s1` [Compound 142] reads 258 ± 17 nM; that for `O=C(CN1CCCCC1)Nc1ccc2cc(C(=O)NO)sc2c1` [Compound 115], 38 nM.

As for `O=C(NO)c1cc2cc(NC(=O)c3cccc4ccccc34)ccc2s1` [Compound 25], the IC50 was determined as 140 ± 14.1 nM. In the case of `O=C(NCCc1ccccn1)c1ccc2cc(C(=O)NO)sc2c1` [Compound 134], the IC50 was 146 ± 10.3 nM. As for `O=C(CCc1ccccc1)Nc1ccc2sc(C(=O)NO)cc2c1` [Compound 4], the IC50 stood at 61 ± 9.8 nM.

In the case of `Cc1ccc(S(=O)(=O)Nc2ccc3sc(C(=O)NO)cc3c2)cc1` [Compound 44], the IC50 came to 162 ± 54.4 nM. Take `O=C(NO)c1cc2cc(CNCc3cccc(Cl)c3)ccc2s1` [Compound 150]: the IC50 was 144.5 ± 0.7 nM.

Turning to `O=C(Nc1ccc2sc(C(=O)NO)cc2c1)c1ccc2ccccc2n1` [Compound 38], the IC50 was determined as 444 nM. Same read-out and setting: the result for `O=C(CN1CCN(c2cccc(Cl)c2)CC1)Nc1ccc2cc(C(=O)NO)sc2c1` [Compound 120] reads 97 ± 21 nM. For `O=C(CN(CCc1ccccc1)Cc1ccccc1)Nc1ccc2cc(C(=O)NO)sc2c1` [Compound 117], the IC50 was determined as 206 ± 50.9 nM. Still for that read-out and setting: the result for `O=C(CN1CCN(c2ccccc2)CC1)Nc1ccc2cc(C(=O)NO)sc2c1` [Compound 46] reads 37 nM. `O=C(NCCc1ccccc1)c1ccc2sc(C(=O)NO)cc2c1` [Compound 105]: the IC50 turned out to be 155 ± 13.4 nM. On the same count and under the same terms, the result for `CN(O)C(=O)c1cc2ccc(N(C)C(=O)Cc3ccccc3)cc2s1` [Compound 113] reads 30775 ± 7 nM. Same read-out and setting: with `O=C(NCc1nc2ccccc2[nH]1)c1ccc2cc(C(=O)NO)sc2c1` [Compound 133] the figure was 30.3 ± 6.5 nM. The same measure, in the same setting: with `CC(C)(C)OC(=O)CN(CC(=O)Nc1ccc2cc(C(=O)NO)sc2c1)CC(=O)OC(C)(C)C` [Compound 118] the figure was 236 ± 28.9 nM; with `CC(=O)N1CCN(CC(=O)Nc2ccc3cc(C(=O)NO)sc3c2)CC1` [Compound 114], 150 ± 12.7 nM; with `COc1ccc(CC(=O)Nc2ccc3cc(C(=O)NO)sc3c2)cc1OC` [Compound 49], 35 nM. For the molecule `O=C(NCCCc1ccccc1)c1ccc2cc(C(=O)NO)sc2c1` [Compound 160], the IC50 came out at 90 ± 11.3 nM.

On to `O=C(Nc1ccc2cc(C(=O)NO)sc2c1)c1ccccc1` [Compound 5], for which the IC50 stood at 204 ± 48.7 nM. Same read-out and setting: with `O=C(NCc1ccccc1)c1ccc2cc(C(=O)NO)sc2c1` [Compound 92] the figure was 53 ± 7 nM; with `CC(C)(C(=O)Nc1ccc2cc(C(=O)NO)sc2c1)c1ccc(Cl)cc1` [Compound 159], 536 ± 168 nM; with `O=C(NO)c1cc2cc(CNCCc3ccc(OCc4ccccc4)c(OCc4ccccc4)c3)ccc2s1` [Compound 144], 1580 ± 334 nM.

`O=C(Nc1ccc2sc(C(=O)NO)cc2c1)c1cccnc1` [Compound 37]: the IC50 is 157 nM. On the same count and under the same terms, the result for `O=C(NO)c1cc2cc(CNCc3ccccc3Cl)ccc2s1` [Compound 149] reads 96.5 ± 34.4 nM; that for `O=C(NCc1ccccc1)c1ccc2sc(C(=O)NO)cc2c1` [Compound 111], 76 ± 21.2 nM. Same read-out and setting: the result for `COc1ccc(N2CCN(CC(=O)Nc3ccc4cc(C(=O)NO)sc4c3)CC2)cc1` [Compound 124] reads 177 ± 16 nM; that for `O=C(NO)C(=O)Nc1ccc2cc(C(=O)NO)sc2c1` [Compound 24], 1170 ± 214 nM. As to `COc1ccc(OC)c(CC(=O)Nc2ccc3cc(C(=O)NO)sc3c2)c1` [Compound 51], the IC50 was 62 nM.

With `COc1ccc(OC)c(CC(=O)Nc2ccc3sc(C(=O)NO)cc3c2)c1` [Compound 87], the IC50 turned out to be 111 ± 23.3 nM. For the molecule `O=C(NCc1ccc(Cl)cc1)c1ccc2cc(C(=O)NO)sc2c1` [Compound 176], the IC50 stood at 126 ± 31.1 nM. Same read-out and setting: the result for `O=C(NCc1cccc(Cl)c1)c1ccc2sc(C(=O)NO)cc2c1` [Compound 170] reads 88 nM; that for `COc1ccc(CN(Cc2ccc3cc(C(=O)NO)sc3c2)C2CCCCC2)cc1` [Compound 193], 99 nM.

On to `O=C(Nc1ccc2sc(C(=O)NO)cc2c1)c1ccc2ccccc2c1` [Compound 41], for which the IC50 is 413 nM. On the same count and under the same terms, with `O=C(Cc1ccccn1)Nc1ccc2cc(C(=O)NO)sc2c1` [Compound 109] the figure was 59 ± 15.5 nM.

`O=C(NCc1ccccc1)Nc1ccc2sc(C(=O)NO)cc2c1` [Compound 40]: the IC50 amounted to 72 nM.

For the molecule `O=C(NO)c1cc2ccc(C(=O)N3CCN(c4ccc(Cl)cc4)CC3)cc2s1` [Compound 158], the IC50 came out at 441 ± 98.2 nM.

For the molecule `O=C(NO)c1cc2cc(CNCCN3CCOCC3)ccc2s1` [Compound 163], the IC50 is 734 ± 34.6 nM. Still for that read-out and setting: the result for `O=C(Nc1ccccc1)c1ccc2cc(C(=O)NO)sc2c1` [Compound 137] reads 615 ± 207 nM; that for `CCOC(=O)N1CCN(CC(=O)Nc2ccc3cc(C(=O)NO)sc3c2)CC1` [Compound 122], 163 ± 35.2 nM; that for `COc1cccc(CNC(=O)c2ccc3sc(C(=O)NO)cc3c2)c1` [Compound 167], 94 ± 5.6 nM.

Take `O=C(Nc1ccc2cc(C(=O)NO)sc2c1)OCc1ccccc1` [Compound 30]: the IC50 was determined as 113 ± 33.2 nM.

In the case of `O=C(NC(c1ccccc1)c1ccccc1)c1ccc2cc(C(=O)NO)sc2c1` [Compound 132], the IC50 was determined as 284 ± 45.2 nM. Still for that read-out and setting: with `COC(=O)c1ccc2cc(C(=O)NO)sc2c1` [Compound 23] the figure was 627 ± 5.6 nM; with `O=C(NO)c1cc2ccc(NS(=O)(=O)Cc3ccccc3)cc2s1` [Compound 11], 41 ± 11.3 nM; with `O=C(NO)c1cc2cc(NS(=O)(=O)c3cccc4ccccc34)ccc2s1` [Compound 27], 102 ± 24 nM. The same measure, in the same setting: with `O=C(CN1CCOCC1)Nc1ccc2cc(C(=O)NO)sc2c1` [Compound 116] the figure was 84 ± 5.6 nM; with `O=C(CN(CC(=O)Nc1ccccc1)C(=O)c1ccc2sc(C(=O)NO)cc2c1)Nc1ccccc1` [Compound 179], 102 ± 26.2 nM. Same read-out and setting: the result for `CC(C)C(=O)Nc1ccc2sc(C(=O)NO)cc2c1` [Compound 35] reads 149 ± 23.3 nM. On to `O=C(/C=C/c1ccccc1)Nc1ccc2sc(C(=O)NO)cc2c1` [Compound 16], for which the IC50 came out at 185 ± 52.3 nM.

Staying with this experiment, now noted: Table 2, thiophene backbone; concentration for 50% inhibition of deacetylation; substrate at Km; unit inferred, text gives nm; read-out: HDAC Inhibition.
For the molecule `O=C(Cc1ccccc1)Nc1ccc(C(=O)NO)s1` [Compound 59], the IC50 came out at 63.5 ± 7.7 nM.

Regarding `COc1cccc(-c2ccc(C(=O)NO)s2)c1` [Compound 55], the IC50 was determined as 444 ± 54.4 nM.

Consider `O=C(CCc1ccc(C(=O)NO)s1)NCC1CCCCC1` [Compound 196], for which the IC50 came out at 1450 ± 111 nM.

In the case of `O=C(NO)c1ccc(-c2cccc(CN(CCc3ccccc3)Cc3ccccc3)c2)s1` [Compound 62], the IC50 stood at 933 ± 22.6 nM. On the same count and under the same terms, with `O=C(NO)c1ccc(-c2cccc(CN(Cc3ccccc3)Cc3ccnc4ccccc34)c2)s1` [Compound 71] the figure was 461 nM; with `O=C(CCc1ccc(C(=O)NO)s1)NCCc1ccccc1` [Compound 81], 690 nM; with `O=C(/C=C/c1ccc(C(=O)NO)s1)NC1CCCCC1` [Compound 79], 666 nM.

As for `O=C(/C=C/c1ccc(C(=O)NO)s1)NCCCc1ccccc1` [Compound 66], the IC50 stood at 70 nM.

As for `O=C(NO)c1ccc(-c2cccc(CN(CCCc3ccccc3)Cc3ccnc4ccccc34)c2)s1` [Compound 75], the IC50 is 920 ± 569 nM. The same measure, in the same setting: the result for `O=C(/C=C/c1ccc(C(=O)NO)s1)NCC1CCCCC1` [Compound 67] reads 120 nM. The same measure, in the same setting: with `O=C(CCc1ccc(C(=O)NO)s1)NCCCc1ccccc1` [Compound 82] the figure was 526 nM. The same measure, in the same setting: the result for `O=C(CCc1ccc(C(=O)NO)s1)Nc1ccccc1` [Compound 80] reads 481 nM; that for `O=C(/C=C/c1ccc(C(=O)NO)s1)NCCc1ccccc1` [Compound 65], 41 nM; that for `O=C(/C=C/c1ccc(C(=O)NO)s1)Nc1ccccc1` [Compound 63], 397 nM. `O=C(NO)c1ccc(NC(=O)c2cccc3ccccc23)s1` [Compound 57]: the IC50 was 363 ± 16.9 nM. The same measure, in the same setting: with `O=C(NO)c1ccc(-c2cccc(CN3CCc4ccccc4C3)c2)s1` [Compound 68] the figure was 417 nM; with `O=C(NO)c1ccc(-c2cccc(CN(CCc3ccccc3)Cc3ccnc4ccccc34)c2)s1` [Compound 73], 705 ± 92.6 nM; with `O=C(Nc1ccc(C(=O)NO)s1)c1ccc2ccccc2c1` [Compound 58], 730 ± 127 nM.

The test system of the next experiment is murine erythroleukemia cell line SC9. In words: MTS assay (Cell Titer 96 Aqueous One Solution Cell Proliferation Assay). Format: cell-based. The following applies: Mus musculus, SC9, 48 h, Table 3, concentration inhibiting proliferation of SC9 cells, unit inferred, unit nm. The procedure:
The novel compounds of the present invention were tested for their ability to inhibit proliferation of the murine erythroleukemia cell line SC9.
The MTS assay, also referred to as the Cell Titer 96 Aqueous One Solution Cell Proliferation Assay, is a calorimetric method for determining the number of viable cells in proliferation, cytotoxicity or chemosensitivity assays. The MTS reagent contains a novel tetrazolium compound [3-(4,5-dimethylthiazol-2-yl)-5-(3-carboxymethoxyphenyl)-2-(4-sulfophenyl)-2H-tetrazolium, inner salt] and electron coupling reagent (phenazine ethosulfate;PES). Murine erythroleukemia cells (SC-9) were incubated with vehicle or increasing concentrations of compound for 48 hours. Cell proliferation was quantitated by adding a small amount of the MTS reagent directly to culture wells, incubating for 1-4 hours and then recording the absorbance at 490 nm with a 96-well plate reader. The quantity of formazan product, as measured by […] absorbance, is directly proportional to the number of living cells in culture.
For orientation: Tetrazolium dyes change colour on reduction, which living cells bring about.
Take `O=C(NO)c1cc2ccc(NC(=O)C3(c4ccccc4)CC3)cc2s1` [Compound 126]: the IC50 is 836 nM.

Regarding `CCC(C(=O)Nc1ccc2sc(C(=O)NO)cc2c1)c1ccccc1` (stereo not drawn) [Compound 86], the IC50 worked out at 836 ± 28.9 nM. Same read-out and setting: with `O=C(NO)c1cc2cc(CNCCCc3ccccc3)ccc2s1` [Compound 154] the figure was 637 nM; with `O=C(NO)c1cc2cc(CNCc3ccccn3)ccc2s1` [Compound 142], 714 nM; with `O=C(CN1CCCCC1)Nc1ccc2cc(C(=O)NO)sc2c1` [Compound 115], 306 ± 78.5 nM.

`O=C(Cc1ccccc1)Nc1ccc(C(=O)NO)s1` [Compound 59] registered an IC50 of 642 nM. Same read-out and setting: the result for `O=C(NO)c1cc2cc(NC(=O)c3cccc4ccccc34)ccc2s1` [Compound 25] reads 545 nM; that for `O=C(NC1CCCc2ccccc21)c1ccc2cc(C(=O)NO)sc2c1` (stereo not drawn) [Compound 135], 836 nM.

Source of the values: US7935724B2, “Thiophene and benzothiophene hydroxamic acid derivatives” (Merck HDAC Research, LLC, priority 2003, dated 2011).
